Values quoted from earlier work as cited in patent US20210113495A1, “METHOD OF TREATING EPILEPSY OR EPILEPTIC ENCEPHALOPATHY WITH FENFLURAMINE IN PATIENTS WITHOUT PULMONARY HYPERTENSION” (ZOGENIX INTERNATIONAL LIMITED, priority 2018, published 2021).

Columns and labels:
[1] = system: patients with PH
[2] = system: children with refractory epilepsy; settings: dose of 0.5 to 1 mg/kg/day
[3] = system: child suffering pattern sensitivity-induced seizures; settings: one child, seizures resistant to anticonvulsive treatment
[4] = system: self-induced photosensitive seizures; settings: four cases
[5] = system: pulmonary arterial hypertension patients; settings: PAH patients who had started treatment with bosentan
[6] = system: patients with PH; settings: short-term infusion
[7] = initial right heart catheterization, resting, 15 women who had used fenfluramine, mean (SD)

CCNC(C)Cc1cccc(C(F)(F)F)c1 (racemic) [fenfluramine, (RS)—N-ethyl-1-[3-(trifluoromethyl)phenyl]propan-2-amine]
users with close temporal relation between fenfluramine use and development of exertional dyspnoea ([1]; 10 of 15 women with PH who had used fenfluramine): 67% | overall survival, fenfluramine users vs controls ([1]; PH patients, transplant recipients excluded): no significant difference in overall survival | pulmonary artery pressure (PAP) [1, 7]: 57 (9) mm Hg | pulmonary vascular resistance (PVR) [1, 7]: 29 (10) U/m^2 | number of seizures experienced by the patients [2]: reduction in the number of seizures | effect on self-induced seizures [3]: successfully terminated these self-induced seizures | response of self-induced photosensitive seizures [4]: responded to treatment with fenfluramine

COc1ccccc1Oc1c(NS(=O)(=O)c2ccc(C(C)(C)C)cc2)nc(-c2ncccn2)nc1OCCO [bosentan]
patients alive at 2 years [5]: 89%

CCCCC[C@H](O)/C=C/[C@@H]1[C@H]2C/C(=C/CCCC(=O)O)O[C@H]2C[C@H]1O [epoprostenol]
mean fall in PVR compared with control values ([6]; 10 responding patients, mean (SD)): 24 (15%) | vasodilator response ([6]; 15 women with PH who had used fenfluramine): significant vasodilator response in 10 patients
